Where a name gives a salt, the structure may show the parent alone. Read-outs that look alike come from different tables or passages of the source.
Legend:
Format in all cases: biochemical
[1] = molecular target: T1, human JAK3 (a.a. 781-1124) (Homo sapiens, UniProt P52333); experiment: In vitro JAK kinase assay (HTRF, phosphorylation of a biotinylated peptide), JAK3
T1 construct: JAK3 (a.a. 781-1124); His tag (N); made in house; host or cells: insect cells (baculovirus)
Procedure, shortened: (§1)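 Phosphorylation of a biotinylated peptide by the JAK kinase domain, detected by HTRF with Eu-Py20 and SA-APC. ATP was 90 μM for JAK1, 30 μM for JAK2 and 3 μM for JAK3. Reactions ran 1 h at room temperature and were stopped with EDTA, followed by 40 min antibody binding.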

[2] = molecular target: T2, human JAK2 (a.a. 828-1132) (Homo sapiens, UniProt O60674); experiment: In vitro JAK kinase assay (HTRF, phosphorylation of a biotinylated peptide), JAK2
T2 construct: JAK2 (a.a. 828-1132); His tag (N); made in house; host or cells: insect cells (baculovirus)
T2 sequence (O60674 828-1132): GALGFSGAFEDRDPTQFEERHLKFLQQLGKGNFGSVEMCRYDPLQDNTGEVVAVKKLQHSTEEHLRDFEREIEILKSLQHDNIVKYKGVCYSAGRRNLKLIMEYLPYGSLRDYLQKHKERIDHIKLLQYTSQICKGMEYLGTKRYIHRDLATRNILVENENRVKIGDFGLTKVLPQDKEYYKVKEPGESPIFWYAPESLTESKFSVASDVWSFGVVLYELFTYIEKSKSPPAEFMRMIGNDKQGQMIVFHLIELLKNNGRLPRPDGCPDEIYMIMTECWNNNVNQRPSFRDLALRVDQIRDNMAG
Procedure, shortened: as §1

[3] = molecular target: T3, Recombinant Human Anaplastic Lymphoma Kinase (Homo sapiens, UniProt Q9UM73); experiment: ALK HTRF kinase assay
T3 construct: purchased Invitrogen, Carlsbad, Calif
T3 sequence (Q9UM73 19-1620): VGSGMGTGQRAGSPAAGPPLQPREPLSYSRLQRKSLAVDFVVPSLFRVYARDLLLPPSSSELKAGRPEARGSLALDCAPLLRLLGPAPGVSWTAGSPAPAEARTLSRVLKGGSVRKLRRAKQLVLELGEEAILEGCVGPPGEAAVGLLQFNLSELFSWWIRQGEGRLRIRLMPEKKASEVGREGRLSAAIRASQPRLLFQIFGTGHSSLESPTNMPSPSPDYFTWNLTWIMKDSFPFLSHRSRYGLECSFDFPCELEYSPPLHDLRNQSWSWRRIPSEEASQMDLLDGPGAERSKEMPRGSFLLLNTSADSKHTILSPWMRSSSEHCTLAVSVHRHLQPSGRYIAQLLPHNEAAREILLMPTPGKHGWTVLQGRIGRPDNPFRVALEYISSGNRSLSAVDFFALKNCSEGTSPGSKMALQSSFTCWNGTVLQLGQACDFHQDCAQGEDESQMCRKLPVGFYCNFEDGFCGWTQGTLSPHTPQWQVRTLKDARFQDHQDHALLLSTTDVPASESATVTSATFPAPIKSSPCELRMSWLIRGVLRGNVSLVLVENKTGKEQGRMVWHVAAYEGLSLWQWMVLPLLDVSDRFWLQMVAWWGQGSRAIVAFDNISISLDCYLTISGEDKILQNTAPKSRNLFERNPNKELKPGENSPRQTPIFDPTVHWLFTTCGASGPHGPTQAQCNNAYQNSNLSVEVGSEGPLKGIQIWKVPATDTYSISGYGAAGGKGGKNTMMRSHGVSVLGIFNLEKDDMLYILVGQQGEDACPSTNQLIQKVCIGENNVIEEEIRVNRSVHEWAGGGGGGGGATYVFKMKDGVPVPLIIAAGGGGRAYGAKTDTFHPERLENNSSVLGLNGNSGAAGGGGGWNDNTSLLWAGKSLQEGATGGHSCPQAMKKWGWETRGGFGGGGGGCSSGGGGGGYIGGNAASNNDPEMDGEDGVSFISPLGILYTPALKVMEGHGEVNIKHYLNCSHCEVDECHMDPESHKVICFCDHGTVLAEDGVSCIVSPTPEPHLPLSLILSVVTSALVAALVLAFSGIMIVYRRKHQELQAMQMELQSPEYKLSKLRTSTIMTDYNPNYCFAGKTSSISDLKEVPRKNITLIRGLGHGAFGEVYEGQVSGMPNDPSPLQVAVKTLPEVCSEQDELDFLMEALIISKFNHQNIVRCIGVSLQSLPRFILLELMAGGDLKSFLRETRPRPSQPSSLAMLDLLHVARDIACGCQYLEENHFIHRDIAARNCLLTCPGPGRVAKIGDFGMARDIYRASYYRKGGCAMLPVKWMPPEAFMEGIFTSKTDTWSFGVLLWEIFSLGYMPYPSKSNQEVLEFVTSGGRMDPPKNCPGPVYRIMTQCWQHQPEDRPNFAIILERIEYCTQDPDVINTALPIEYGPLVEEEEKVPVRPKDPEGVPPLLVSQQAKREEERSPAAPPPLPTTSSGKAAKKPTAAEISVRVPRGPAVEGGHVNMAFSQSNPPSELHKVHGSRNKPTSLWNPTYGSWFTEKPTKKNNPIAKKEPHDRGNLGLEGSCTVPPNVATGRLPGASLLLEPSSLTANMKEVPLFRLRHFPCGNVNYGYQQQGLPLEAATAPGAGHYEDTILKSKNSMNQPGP
Procedure, shortened: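 Readout was HTRF between a Eu-W1024 anti-phosphotyrosine antibody and streptavidin-APC bound to biotinylated peptide phosphorylated by recombinant human ALK. IC50 values came from a four-parameter logistic fit.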

[4] = molecular target: T4, human JAK1 (a.a. 837-1142) (Homo sapiens, UniProt P23458); experiment: In vitro JAK kinase assay (HTRF, phosphorylation of a biotinylated peptide), JAK1; conditions: read-out: JAK1 IC50
T4 construct: human JAK1 (a.a. 837-1142); His tag (N); made in house; host or cells: insect cells (baculovirus)
T4 sequence (P23458 849-1154): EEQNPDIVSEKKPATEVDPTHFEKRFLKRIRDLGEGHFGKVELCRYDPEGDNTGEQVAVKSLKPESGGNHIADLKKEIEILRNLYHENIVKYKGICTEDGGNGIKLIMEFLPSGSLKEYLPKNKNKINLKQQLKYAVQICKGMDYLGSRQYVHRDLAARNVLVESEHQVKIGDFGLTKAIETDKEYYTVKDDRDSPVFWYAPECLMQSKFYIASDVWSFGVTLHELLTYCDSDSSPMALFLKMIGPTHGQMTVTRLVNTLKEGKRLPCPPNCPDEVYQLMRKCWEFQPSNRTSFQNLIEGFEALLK
Procedure, shortened: as §1

[5] = molecular target: TYK2 (Homo sapiens, UniProt P29597); experiment: TYK2 kinase inhibition (Table A1)
Sequence of TYK2 (P29597 whole entry): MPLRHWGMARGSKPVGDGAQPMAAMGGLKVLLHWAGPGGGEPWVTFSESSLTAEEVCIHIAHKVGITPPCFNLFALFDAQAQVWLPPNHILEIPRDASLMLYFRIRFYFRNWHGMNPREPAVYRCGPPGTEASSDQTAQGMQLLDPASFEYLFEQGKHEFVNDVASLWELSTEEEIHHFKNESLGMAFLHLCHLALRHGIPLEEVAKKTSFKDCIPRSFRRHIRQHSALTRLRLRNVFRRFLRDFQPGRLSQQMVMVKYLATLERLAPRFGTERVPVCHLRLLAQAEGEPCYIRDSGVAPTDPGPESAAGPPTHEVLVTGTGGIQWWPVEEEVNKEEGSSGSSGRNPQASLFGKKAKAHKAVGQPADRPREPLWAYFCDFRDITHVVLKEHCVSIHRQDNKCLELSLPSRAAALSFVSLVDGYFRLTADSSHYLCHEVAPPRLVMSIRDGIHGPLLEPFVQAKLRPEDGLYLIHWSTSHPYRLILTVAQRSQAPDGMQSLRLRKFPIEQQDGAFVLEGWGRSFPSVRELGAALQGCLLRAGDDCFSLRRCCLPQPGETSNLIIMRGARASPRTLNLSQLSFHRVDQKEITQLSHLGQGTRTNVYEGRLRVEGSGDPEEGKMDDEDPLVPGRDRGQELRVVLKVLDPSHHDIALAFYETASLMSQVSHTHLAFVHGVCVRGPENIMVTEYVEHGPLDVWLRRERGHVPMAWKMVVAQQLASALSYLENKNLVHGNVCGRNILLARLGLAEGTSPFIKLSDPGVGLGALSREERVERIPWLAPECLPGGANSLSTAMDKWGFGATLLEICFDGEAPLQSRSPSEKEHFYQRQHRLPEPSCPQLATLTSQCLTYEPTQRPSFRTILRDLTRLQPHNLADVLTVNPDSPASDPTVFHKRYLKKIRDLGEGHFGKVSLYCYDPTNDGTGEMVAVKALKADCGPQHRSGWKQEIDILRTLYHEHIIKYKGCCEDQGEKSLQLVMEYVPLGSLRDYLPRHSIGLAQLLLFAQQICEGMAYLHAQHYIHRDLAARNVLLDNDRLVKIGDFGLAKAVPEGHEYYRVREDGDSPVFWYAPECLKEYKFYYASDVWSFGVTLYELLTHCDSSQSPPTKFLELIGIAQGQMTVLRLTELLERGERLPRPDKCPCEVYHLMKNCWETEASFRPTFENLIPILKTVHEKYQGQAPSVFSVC

[6] = Table B1, cells without percent sign
[7] = compound at a concentration of 500 nM or 1 mM (not specified), cells shown as percentage
[8] = method AA1 (3 μM ATP) or AA2 (1000 μM ATP), not stated per value
[9] = method AA1 (30 μM ATP) or AA2 (1000 μM ATP), not stated per value
[10] = compound at 500 nM or 1 mM, 90 μM ATP
[11] = method AA1 (90 μM ATP) or AA2 (1000 μM ATP), not stated per value

T1 sequence (P52333 781-1124): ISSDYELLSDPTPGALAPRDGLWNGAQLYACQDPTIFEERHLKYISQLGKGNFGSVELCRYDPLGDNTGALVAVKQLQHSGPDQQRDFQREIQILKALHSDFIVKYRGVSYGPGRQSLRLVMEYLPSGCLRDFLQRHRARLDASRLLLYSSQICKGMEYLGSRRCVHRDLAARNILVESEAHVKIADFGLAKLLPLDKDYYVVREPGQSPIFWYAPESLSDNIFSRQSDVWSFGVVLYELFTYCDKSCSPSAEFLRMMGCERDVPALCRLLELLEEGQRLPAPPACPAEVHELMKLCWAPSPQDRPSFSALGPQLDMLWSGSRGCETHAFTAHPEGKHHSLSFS

Row | SMILES | IC50 ([1]; Table B1) | IC50 ([2]; Table B1) | IC50 ([4]; Table B1) | IC50 ([5]; Table B1) | ALK % of inhibition at a concentration of 500 nM or 1 mM [3, 7] | further results
1 | O=C(Nc1ccc2cc1CCc1cncc(c1)Nc1ncc(Cl)c(n1)N2)N1CCN(c2ccc(F)cc2)CC1 [Example B297, N-[6-Chloro-2,4,8,18,22-pentaazatetracyclo[14.3.1.1(3,7).1(9,13)]docosa-1(20),3(22),4,6,9(21),10,12,16,18-nonaen-12-yl]-4-(4-fluorophenyl)piperazine-1-carboxamide tris(trifluoroacetate)] | > 0.4 µM | 0.067 µM | 0.027 µM | 0.036 µM | 66% | –
2 | O=C(CC1CCN(C(=O)c2c[nH]nn2)CC1)Nc1ccc2cc1CCc1cncc(c1)Nc1ncc(Cl)c(n1)N2 [Example A137, N-[6-Chloro-2,4,8,18,22-pentaazatetracyclo[14.3.1.1(3,7).1(9,13)]docosa-1(20),3(22),4,6,9(21),10,12,16,18-nonaen-12-yl]-2-[1-(1H-1,2,3-triazol-4-ylcarbonyl)piperidin-4-yl]acetamide bis(trifluoroacetate)] | – | – | – | – | – | IC50 [1, 8]: 0.041 µM; IC50 [2, 9]: 0.003 µM; ALK % of inhibition at a concentration of 500 nM or 1 mM [3, 10]: 54%; IC50 [4, 11]: 0.0006 µM; IC50 [5]: 0.001 µM
3 | N#Cc1ccccc1S(=O)(=O)N1CCC(CC(=O)Nc2ccc3cc2CCc2cncc(c2)Nc2ncc(Cl)c(n2)N3)CC1 [Example A198, N-[6-Chloro-2,4,8,18,22-pentaazatetracyclo[14.3.1.1(3,7).1(9,13)]docosa-1(20),3(22),4,6,9(21),10,12,16,18-nonaen-12-yl]-2-{1-[(2-cyanophenyl)sulfonyl]piperidin-4-yl}acetamide bis(trifluoroacetate)] | – | – | – | – | – | IC50 [1, 8]: > 0.2 µM; IC50 [2, 9]: 0.05 µM; ALK % of inhibition at a concentration of 500 nM or 1 mM [3, 10]: 56%; IC50 [4, 11]: 0.0004 µM; IC50 [5]: 0.05 µM
4 | O=C(NC1CCCC1)N1CCN(c2cc(-c3cc4cc(c3)Nc3ncc(Cl)c(n3)Nc3cccc(c3)OCC4)ccn2)CC1 [Example D46, 4-{4-[6-Chloro-14-oxa-2,4,8,23-tetraazatetracyclo[15.3.1.1(3,7).1(9,13)]tricosa-1(21),3(23),4,6,9(22),10,12,17,19-nonaen-19-yl]pyridin-2-yl}-N-cyclopentylpiperazine-1-carboxamide bis(trifluoroacetate)] | – | – | – | – | – | IC50 ([1]; Table D1): 0.021 µM; IC50 ([2]; Table D1): 0.0009 µM; IC50 ([3]; Table D1, 90 μM ATP): 0.39 µM; IC50 ([4]; Table D1): 0.0047 µM; IC50 ([5]; Table D1): 0.0082 µM
5 | O=C(CC1CCN(C(=O)Nc2ccc(F)cc2)CC1)Nc1ccc2cc1CCc1cncc(c1)Nc1ncc(Cl)c(n1)N2 [Example A148, 4-(2-{[6-Chloro-2,4,8,18,22-pentaazatetracyclo[14.3.1.1(3,7).1(9,13)]docosa-1(20),3(22),4,6,9(21),10,12,16,18-nonaen-12-yl]amino}-2-oxoethyl)-N-(4-fluorophenyl)piperidine-1-carboxamide bis(trifluoroacetate)] | – | – | – | – | – | IC50 [1, 8]: > 0.1 µM; IC50 [2, 9]: 0.0015 µM; ALK % of inhibition at a concentration of 500 nM or 1 mM [3, 10]: 42%; IC50 [4, 11]: 0.0002 µM; IC50 [5]: 0.0039 µM
6 | O=C(Nc1ccc2cc1CCc1cncc(c1)Nc1ncc(Cl)c(n1)N2)N1CCN(c2ccccc2)CC1 [Example B292, N-[6-Chloro-2,4,8,18,22-pentaazatetracyclo[14.3.1.1(3,7).1(9,13)]docosa-1(20),3(22),4,6,9(21),10,12,16,18-nonaen-12-yl]-4-phenylpiperazine-1-carboxamide tris(trifluoroacetate)] | > 0.2 µM | > 0.2 µM | 0.032 µM | 0.1 µM | 68% | –
7 | O=C(Nc1cc2cc(c1)Nc1nc(ncc1Cl)Nc1cccc(c1)CC2)c1ccccn1 [Example B201, N-[6-Chloro-2,4,8,22-tetraazatetracyclo[14.3.1.1(3,7).1(9,13)]docosa-1(20),3(22),4,6,9(21),10,12,16,18-nonaen-11-yl]pyridine-2-carboxamide trifluoroacetate] | 0.454 µM | 0.41 µM | 0.119 µM | > 1 µM | – | IC50 [3, 6]: > 10 µM

Continued, in another order:

Row | IC50 ([1]; Table B1) | IC50 ([2]; Table B1) | IC50 ([4]; Table B1) | IC50 ([5]; Table B1) | ALK % of inhibition at a concentration of 500 nM or 1 mM [3, 7] | SMILES | further results
8 | 0.04 µM | 0.0024 µM | 0.0013 µM | 0.0022 µM | – | N#Cc1ccccc1S(=O)(=O)Nc1ccc2cc1CCc1cccc(c1)Nc1ncc(Cl)c(n1)N2 [Example B155, N-[6-Chloro-2,4,8,22-tetraazatetracyclo[14.3.1.1(3,7).1(9,13)]docosa-1(20), 3(22),4,6,9(21),10,12,16,18-nonaen-12-yl]-2-cyanobenzenesulfonamide trifluoroacetate] | IC50 [3, 6]: > 1 µM
9 | 0.124 µM | 0.031 µM | 0.009 µM | 0.046 µM | 49% | O=C(Nc1ccc2c(c1)CCC2)Nc1ccc2cc1CCc1cccc(c1)Nc1ncc(Cl)c(n1)N2 [Example B103, N-[6-Chloro-2,4,8,22-tetraazatetracyclo[14.3.1.1(3,7).1(9,13)]docosa-1(20), 3(22),4,6,9(21),10,12,16,18-nonaen-12-yl]-N′-(2,3-dihydro-1H-inden-5-yl)urea trifluoroacetate] | –
10 | 0.038 µM | 0.0047 µM | 0.0026 µM | 0.0087 µM | 19% | O=C(Nc1ccc2cc1CCc1cccc(c1)Nc1ncc(Cl)c(n1)N2)N[C@H]1CCN(c2ncccn2)C1 [Example B262, N-[6-Chloro-2,4,8,22-tetraazatetracyclo[14.3.1.1(3,7).1(9,13)]docosa-1(20),3(22),4,6,9(21),10,12,16,18-nonaen-12-yl]-N′-[(3S)-1-pyrimidin-2-ylpyrrolidin-3-yl]urea bis(trifluoroacetate)] | –
11 | 0.076 µM | 0.042 µM | 0.062 µM | 0.357 µM | – | Cc1ncoc1C(=O)Nc1cc2cc(c1)Nc1nc(ncc1Cl)Nc1cccc(c1)CC2 [Example B210, N-[6-Chloro-2,4,8,22-tetraazatetracyclo[14.3.1.1(3,7).1(9,13)]docosa-1(20),3(22),4,6,9(21),10,12,16,18-nonaen-11-yl]-4-methyl-1,3-oxazole-5-carboxamide trifluoroacetate] | IC50 [3, 6]: > 1 µM
12 | 0.053 µM | 0.014 µM | 0.0055 µM | 0.025 µM | 32% | O=C(NCCN1CCCC1)Nc1ccc2cc1CCc1cccc(c1)Nc1ncc(Cl)c(n1)N2 [Example B255, N-[6-Chloro-2,4,8,22-tetraazatetracyclo[14.3.1.1(3,7).1(9,13)]docosa-1(20),3(22),4,6,9(21),10,12,16,18-nonaen-12-yl]-N′-(2-pyrrolidin-1-ylethyl)urea bis(trifluoroacetate)] | –
13 | 0.0003 µM | 0.00015 µM | 0.00051 µM | 0.00062 µM | 87% | COc1cccc(S(=O)(=O)Nc2ccc3cc2CCc2cccc(c2)Nc2ncc(Cl)c(n2)N3)c1 [Example B157, N-[6-Chloro-2,4,8,22-tetraazatetracyclo[14.3.1.1(3,7).1(9,13)]docosa-1(20), 3(22),4,6,9(21),10,12,16,18-nonaen-12-yl]-3-methoxybenzenesulfonamide trifluoroacetate] | –
14 | 0.0012 µM | 0.0008 µM | 0.0002 µM | 0.0018 µM | 75% | OCc1ccc2cc1CCc1cccc(c1)Nc1ncc(Cl)c(n1)N2 [Example B23, [6-Chloro-2,4,8,22-tetraazatetracyclo[14.3.1.1(3,7).1(9,13)]docosa-1(20),3(22),4,6,9(21),10,12,16,18-nonaen-12-yl]methanol trifluoroacetate] | –
15 | 0.021 µM | 0.006 µM | 0.0037 µM | 0.005 µM | 14% | O=C(Nc1ccc2cc1CCc1cccc(c1)Nc1ncc(Cl)c(n1)N2)Nc1ccccc1C(F)(F)F [Example B111, N-[6-Chloro-2,4,8,22-tetraazatetracyclo[14.3.1.1(3,7).1(9,13)]docosa-1(20), 3(22),4,6,9(21),10,12,16,18-nonaen-12-yl]-N′-[2-(trifluoromethyl)phenyl]urea trifluoroacetate] | –
16 | 0.14 µM | 0.051 µM | 0.064 µM | 0.11 µM | – | O=C(Nc1cc2cc(c1)Nc1nc(ncc1Cl)Nc1cccc(c1)CC2)c1nccs1 [Example B209, N-[6-Chloro-2,4,8,22-tetraazatetracyclo[14.3.1.1(3,7).1(9,13)]docosa-1(20),3(22),4,6,9(21),10,12,16,18-nonaen-11-yl]-1,3-thiazole-2-carboxamide trifluoroacetate] | IC50 [3, 6]: > 1 µM

Reference: patent US8871753B2, “Macrocyclic compounds and their use as kinase inhibitors” (Incyte Corporation, priority 2008, dated 2014)
